Laboratory results reported in ChEMBL document CHEMBL4814040 (Bioorg Med Chem Lett, 2021).

Key:
MAO-B = molecular target: T1, MAO-B (Homo sapiens, UniProt P27338); test: Inhibition of MAO-B (unknown origin) at 10 uM relative to control
T1 sequence (P27338 whole entry): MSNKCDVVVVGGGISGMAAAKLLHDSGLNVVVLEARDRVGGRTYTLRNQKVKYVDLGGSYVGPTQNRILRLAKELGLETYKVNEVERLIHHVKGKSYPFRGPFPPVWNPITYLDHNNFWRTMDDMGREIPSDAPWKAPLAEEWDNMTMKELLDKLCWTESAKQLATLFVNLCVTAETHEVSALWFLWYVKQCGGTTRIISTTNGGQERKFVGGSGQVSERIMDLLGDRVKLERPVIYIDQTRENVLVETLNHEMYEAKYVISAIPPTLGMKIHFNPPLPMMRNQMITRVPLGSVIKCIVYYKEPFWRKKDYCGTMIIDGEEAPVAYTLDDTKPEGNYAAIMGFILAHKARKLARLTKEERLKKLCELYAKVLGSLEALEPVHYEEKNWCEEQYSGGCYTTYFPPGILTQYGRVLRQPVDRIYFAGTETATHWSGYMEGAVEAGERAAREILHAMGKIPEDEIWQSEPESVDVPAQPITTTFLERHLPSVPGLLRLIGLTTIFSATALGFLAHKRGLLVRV

MAO-A = molecular target: T2, MAO-A (Homo sapiens, UniProt P21397); test: Inhibition of MAO-A (unknown origin) at 10 uM relative to control
T2 sequence (P21397 whole entry): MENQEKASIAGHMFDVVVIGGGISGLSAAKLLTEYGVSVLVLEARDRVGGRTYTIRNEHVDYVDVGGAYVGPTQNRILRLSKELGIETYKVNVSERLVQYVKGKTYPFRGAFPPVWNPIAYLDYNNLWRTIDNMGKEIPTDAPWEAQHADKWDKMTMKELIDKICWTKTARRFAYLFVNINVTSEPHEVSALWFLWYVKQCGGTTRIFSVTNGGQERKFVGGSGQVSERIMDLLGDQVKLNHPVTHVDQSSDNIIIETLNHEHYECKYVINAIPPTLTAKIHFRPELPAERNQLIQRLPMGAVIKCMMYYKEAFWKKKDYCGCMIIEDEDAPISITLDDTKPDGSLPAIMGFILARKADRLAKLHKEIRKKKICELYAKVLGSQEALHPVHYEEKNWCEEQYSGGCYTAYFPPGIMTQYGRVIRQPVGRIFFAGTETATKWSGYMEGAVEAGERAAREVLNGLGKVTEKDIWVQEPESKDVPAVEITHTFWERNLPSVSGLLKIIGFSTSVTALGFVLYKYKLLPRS

PC-3 = test: cells; conditions: Homo sapiens, PC-3, read-out: INH
Description: Antiproliferative activity against human PC-3 cells assessed as cell growth inhibition at 16 uM relative to control

MGC-803 = test: cells; conditions: Homo sapiens, MGC-803, read-out: INH
Description: Antiproliferative activity against human MGC803 cells assessed as cell growth inhibition at 16 uM relative to control

MCF7 = test: cells; conditions: Homo sapiens, MCF7, read-out: INH
Description: Antiproliferative activity against human MCF7 cells assessed as cell growth inhibition at 16 uM relative to control

SGC-7901 = test: cells; conditions: Homo sapiens, SGC-7901, read-out: INH
Description: Antiproliferative activity against human SGC7901 cells assessed as cell growth inhibition at 16 uM relative to control

| inhibition at 10 µM (MAO-B) [%] | inhibition at 10 µM (MAO-A) [%] | SMILES | inhibition at 16 µM (PC-3) [%] | inhibition at 16 µM (MGC-803) [%] | inhibition at 16 µM (MCF7) [%] | inhibition at 16 µM (SGC-7901) [%] |
| --- | --- | --- | --- | --- | --- | --- |
| 51 | 90 | COc1ccccc1-n1cc(CN[C@@H]2C[C@H]2c2ccc(F)c(F)c2)nn1 | – | – | – | – |
| 44 | 91 | COc1ccccc1-n1cc(CN[C@@H]2C[C@H]2c2ccccc2)nn1 | – | – | – | – |
| 58 | 97 | COc1ccc(OC)c(-n2cc(CN[C@@H]3C[C@H]3c3ccccc3)nn2)c1 | – | – | – | – |
| 94 | 101 | FC(F)(F)c1cccc(-n2cc(CN[C@@H]3C[C@H]3c3ccccc3)nn2)c1 | – | – | – | – |
| 76 | 102 | c1ccc([C@@H]2C[C@H]2NCc2cn(-c3ccccc3)nn2)cc1 | – | – | – | – |
| 67 | 101 | COc1cc(OC)cc(-n2cc(CN[C@@H]3C[C@H]3c3ccccc3)nn2)c1 | – | – | – | – |
| 55 | 99 | COc1ccc(-n2cc(CN[C@@H]3C[C@H]3c3ccccc3)nn2)cc1 | – | – | – | – |
| 54 | 93 | COc1cccc(-n2cc(CN[C@@H]3C[C@H]3c3ccccc3)nn2)c1 | – | – | – | – |
| 86 | 101 | FC(F)(F)c1ccc(-n2cc(CN[C@@H]3C[C@H]3c3ccccc3)nn2)cc1 | – | – | – | – |

The remaining lines, values behind:

| SMILES | inhibition at 10 µM (MAO-B) [%] | inhibition at 10 µM (MAO-A) [%] | inhibition at 16 µM (PC-3) [%] | inhibition at 16 µM (MGC-803) [%] | inhibition at 16 µM (MCF7) [%] | inhibition at 16 µM (SGC-7901) [%] |
| --- | --- | --- | --- | --- | --- | --- |
| COc1ccc(OC)c(-n2cc(CN[C@@H]3C[C@H]3c3ccc(F)c(F)c3)nn2)c1 | 48 | 89 | 21.8 | 24.5 | 33.6 | 27.7 |
| Fc1ccc([C@@H]2C[C@H]2NCc2cn(-c3cc(C(F)(F)F)cc(C(F)(F)F)c3)nn2)cc1F | 35 | 91 | – | – | – | – |
| COc1ccc(-n2cc(CN[C@@H]3C[C@H]3c3ccc(F)c(F)c3)nn2)cc1 | 64 | 100 | 25.2 | 16.3 | 37.3 | 42 |
| Fc1ccc([C@@H]2C[C@H]2NCc2cn(-c3ccc(C(F)(F)F)cc3)nn2)cc1F | 82 | 101 | – | – | – | – |
| FC(F)(F)c1cc(-n2cc(CN[C@@H]3C[C@H]3c3ccccc3)nn2)cc(C(F)(F)F)c1 | 88 | 92 | – | – | – | – |
| COc1cccc(-n2cc(CN[C@@H]3C[C@H]3c3ccc(F)c(F)c3)nn2)c1 | 65 | 102 | – | – | – | – |
| COc1cc(OC)cc(-n2cc(CN[C@@H]3C[C@H]3c3ccc(F)c(F)c3)nn2)c1 | 42 | 93 | – | – | – | – |
| Fc1ccc([C@@H]2C[C@H]2NCc2cn(-c3cccc(C(F)(F)F)c3)nn2)cc1F | 43 | 90 | – | – | – | – |
